By MIC is commonly meant the smallest concentration in the dilution series that meets the test's criterion for growth inhibition.

The structures appear in SMILES notation. Values after ≈ are worked out from the molar mass of the structure shown. Where only a bound is given, the exact number is not on record here.

Data on 59 compounds can be found in US20210317099A1, “SAFER, POTENT, AND FAST ACTING ANTIMICROBIAL AGENTS” (Purdue Research Foundation, priority 2020, published 2021).

For the first experiment, the system named is Staphylococcus aureus NRS384 (MRSA USA300). As to the kind of experiment: Initial MIC screening, broth microdilution (CLSI). The class given is cell-based. Particulars: Staphylococcus aureus NRS384 (MRSA USA300), broth microdilution, visual reading. Here is the method: Method: The minimum inhibitory concentration (MIC) of the compounds 1-187, and control antibiotics (vancomycin, linezolid) was determined using the broth microdilution method against methicillin-resistant Staphylococcus aureus (MRSA) USA 300 using the broth microdilution method according to the guidelines outlined by the Clinical and Laboratory Standards Institute (CLSI). MRSA strain was cultivated on Tryptic soy agar plates and let grow for 24 hours at 37° C. under aerobic conditions. Bacterial suspension equivalent to 0.5 McFarland standard was prepared and diluted in cation-adjusted Mueller-Hinton broth (CAMHB) to attain a bacterial concentration of 5×10^5 CFU/ml and seeded in 96-well plates. The desired concentrations of each drug and compound were added in the first row of the 96-well plates and serially diluted to achieve a concentration gradient from 64 μg/ml to 0.5 μg/mL.
On the technique in general: Broth dilution looks for growth in wells or tubes with falling amounts of substance.
`C=C1C(=O)O[C@H](c2ccccc2)[C@@H]1c1ccc2ccccc2c1` [Compound 112]: the minimal inhibitory concentration (MIC) was determined as 64 µg/mL (≈ 213 µM).

In turn, `C=C1C(=O)O[C@H](c2ccccc2)[C@@H]1c1ccccc1` [Compound 150] displayed an MIC of 16 µg/mL (≈ 63.9 µM).

`C=C1C(=O)O[C@H](c2ccnc3ccccc23)[C@H]1c1ccccc1` [Compound 120] gave a minimum inhibitory concentration (MIC) of 128 µg/mL (≈ 425 µM).

Regarding `C=C1C(=O)O[C@H](c2ccccc2)[C@@H]1c1ccc2ccccc2c1` [Compound 152], the MIC amounted to 8 µg/mL (≈ 26.6 µM).

The compound `C=C1C(=O)O[C@H](c2ccccc2)[C@@H]1c1ccc2ccccc2c1` [Compound 109] gave a minimal inhibitory concentration (MIC) not above 1 µg/mL.

`C=C1C(=O)O[C@H](c2ccc(OC)cc2)[C@@H]1c1ccc(OC)cc1` [Compound 68] returned an MIC of 64 µg/mL (≈ 206 µM).

`C=C1C(=O)O[C@H](c2ccnc3ccccc23)[C@H]1c1ccccc1` [Compound 113] displayed a minimal inhibitory concentration (MIC) of 16 µg/mL (≈ 53.1 µM).

In turn, `CCN(CC)CC1C(=O)O[C@H](c2ccc3ccccc3c2)[C@H]1c1ccccc1` (some centres unmarked) [Compound 108] came in with a minimal inhibitory concentration (MIC) of more than 128 µg/mL.

Staying with this experiment, now noted: Staphylococcus aureus, Staphylococcus aureus NRS384 (MRSA USA300), broth microdilution, visual reading; read-out: MIC.
With `C=C1C(=O)O[C@H](C2CCCCC2)[C@@H]1c1ccc(C)cc1` [Compound 93], the minimum inhibitory concentration (MIC) is more than 128 µg/mL.

In the case of `C=C1C(=O)O[C@H](c2ccc(OCc3ccccc3)c(OC(C)=O)c2)[C@@H]1c1ccccc1Br` [Compound 56], the MIC was more than 128 µg/mL.

For the compound `C=C1C(=O)O[C@H](c2ccc(C#N)cc2)[C@@H]1c1ccccc1` [Compound 39], the MIC was determined as 64 µg/mL (≈ 232 µM).

As for `C=C1C(=O)O[C@H](c2c(F)cccc2F)[C@@H]1c1ccccc1` [Compound 100], the MIC was found to be 8 µg/mL (≈ 27.9 µM).

For the compound `Cc1ccc([C@H]2OC(=O)C(CN(C)C)[C@H]2c2ccccc2)cc1` (some centres unmarked) [Compound 18], the MIC is 128 µg/mL (≈ 414 µM).

As to `O=C1O[C@H](C2CCCCC2)C[C@@H]1CN1CCCCC1` [Compound 47], the MIC was more than 128 µg/mL.

Consider `C=C1C(=O)O[C@H](c2ccc(C(F)(F)F)cc2)[C@@H]1c1cccc(Br)c1` [Compound 88], for which the MIC was 16 µg/mL (≈ 40.3 µM).

On to `C=C1C(=O)O[C@H](c2ccc3ccccc3c2)[C@H]1c1ccccc1` [Compound 110], for which the minimum inhibitory concentration (MIC) was found to be 8 µg/mL (≈ 26.6 µM).

On to `C=C(C(=O)OC)C(c1ccccc1)C(O)c1ccc2ccccc2c1` (centres unmarked) [Compound 143], for which the MIC is 16 µg/mL (≈ 48.1 µM).

Take `C=C1C(=O)O[C@H](/C=C/C)[C@@H]1c1ccc(Br)cc1` [Compound 59]: the MIC is 32 µg/mL (≈ 109 µM).

As to `C=C1C(=O)O[C@H](c2cccc(OC)c2)[C@@H]1c1ccc(C(F)(F)F)cc1` [Compound 83], the minimum inhibitory concentration (MIC) came to 16 µg/mL (≈ 45.9 µM).

With `C=C1C(=O)O[C@H](c2ccc3ccccc3c2)[C@@H]1c1ccccc1` [Compound 156], the minimal inhibitory concentration (MIC) came to 16 µg/mL (≈ 53.3 µM).

In the case of `C=C1C(=O)O[C@H](c2ccc3ccccc3n2)[C@@H]1c1ccccc1` [Compound 116], the MIC was more than 128 µg/mL.

As to `C=C1C(=O)O[C@H](c2ccc(OC)cc2)[C@H]1C` [Compound 118], the minimum inhibitory concentration (MIC) was more than 128 µg/mL.

Consider `C=C(C(=O)OC)C(c1ccccc1)C(O)c1cccc2ccccc12` (centres unmarked) [Compound 142], for which the MIC was determined as 4 µg/mL (≈ 12 µM).

`COc1ccc([C@H]2OC(=O)[C@@H](CN(C)C)[C@H]2c2ccccc2)cc1` [Compound 8]: the MIC was more than 256 µg/mL.

As for `C=C1C(=O)O[C@H](c2ccc(OC)cc2)[C@@H]1c1cccc(Br)c1` [Compound 3], the MIC worked out at 8 µg/mL (≈ 22.3 µM).

Take `C=C1C(=O)O[C@H](C2CCCCC2)[C@@H]1c1ccccc1` [Compound 106]: the MIC was more than 128 µg/mL.

On to `O=C1O[C@H](c2cccc3ccccc23)[C@H](c2cccc3ccccc23)C1CN1CCCCC1` (some centres unmarked) [Compound 163], for which the minimum inhibitory concentration (MIC) is more than 64 µg/mL.

`C=C1C(=O)O[C@H](c2ccc(Br)cc2)[C@@H]1c1ccc(C#N)cc1` [Compound 13]: the MIC worked out at 4 µg/mL (≈ 11.3 µM).

As for `N#Cc1ccc([C@H]2COC(=O)C2CN2CCCCC2)cc1` (some centres unmarked) [Compound 28], the MIC is more than 128 µg/mL.

With `CCC[C@@H]1[C@H](CN2CCCCC2)C(=O)O[C@H]1c1ccc(SC)cc1` [Compound 45], the MIC is more than 128 µg/mL.

Turning to `CN(C)CC1C(=O)O[C@H](c2cccc3ccccc23)[C@@H]1c1ccc2ccccc2c1` (some centres unmarked) [Compound 169], the MIC came to 4 µg/mL (≈ 10.1 µM).

Regarding `C=C1C(=O)O[C@H](c2ccc(OC)cc2)[C@@H]1c1ccc(Br)cc1` [Compound 2], the MIC was 8 µg/mL (≈ 22.3 µM).

Turning to `CN(C)CC1C(=O)O[C@H](c2ccccc2)[C@@H]1c1ccc(C#N)cc1` (some centres unmarked) [Compound 16], the minimal inhibitory concentration (MIC) was more than 128 µg/mL.

As to `C/C=C/[C@H]1OC(=O)C(CN2CCCCC2)[C@H]1c1ccc(Br)cc1` (some centres unmarked) [Compound 29], the minimum inhibitory concentration (MIC) is 16 µg/mL (≈ 42.3 µM).

As to `C=CCNC[C@@H]1C(=O)O[C@H](c2ccccc2)[C@@H]1c1ccccc1` [Compound 63], the MIC is 128 µg/mL (≈ 416 µM).

In the case of `C=C1C(=O)O[C@H](c2ccc(C)cc2)[C@@H]1c1ccc(C#N)cc1` [Compound 65], the minimum inhibitory concentration (MIC) was determined as 4 µg/mL (≈ 13.8 µM).

As to `COc1ccc([C@@H]2C(CN(C)C)C(=O)O[C@@H]2c2ccccc2)cc1` (some centres unmarked) [Compound 17], the MIC is 64 µg/mL (≈ 197 µM).

With `CC(C)(C)[Si](C)(C)OCC[C@H]1OC(=O)[C@@H](CN2CCCCC2)[C@H]1c1cccc(Br)c1` [Compound 48], the MIC was more than 128 µg/mL.

Consider `O=C1OC(c2ccccc2)C(C2CCCCC2)C1CN1CCCCC1` (centres unmarked) [Compound 186], for which the MIC is more than 64 µg/mL.

Regarding `C=C1C(=O)O[C@H](c2cccc(Br)c2)[C@@H]1c1ccc(C#N)cc1` [Compound 1], the MIC stood at 8 µg/mL (≈ 22.6 µM).

Turning to `C=C1C(=O)O[C@H](c2ccc(OC)cc2)[C@@H]1c1ccccc1` [Compound 75], the MIC is 64 µg/mL (≈ 228 µM).

For the compound `C=C1C(=O)O[C@H](c2ccc(OC)cc2)[C@@H]1c1ccc(C(F)(F)F)cc1` [Compound 79], the MIC came out at 8 µg/mL (≈ 23 µM).

In the case of `CC1(C)CC(CN2CCCCC2)C(=O)O1` (centres unmarked) [Compound 80], the minimal inhibitory concentration (MIC) was more than 128 µg/mL.

Take `O=C1O[C@H](c2cccc3ccccc23)[C@H](c2ccc3ccccc3c2)C1CN1CCCCC1` (some centres unmarked) [Compound 164]: the MIC was more than 64 µg/mL.

As for `C=C1C(=O)O[C@H](c2ccc(C)cc2)[C@@H]1c1ccccc1` [Compound 71], the MIC came to 32 µg/mL (≈ 121 µM).

`C=C1C(=O)O[C@H](c2ccnc3ncccc23)[C@H]1c1ccccc1` [Compound 121]: the minimum inhibitory concentration (MIC) is 32 µg/mL (≈ 106 µM).

Regarding `C=C1C(=O)O[C@H](c2cnc3ccccc3c2)[C@H]1c1ccccc1` [Compound 99], the MIC stood at 32 µg/mL (≈ 106 µM).

On to `C=C1C(=O)O[C@H](c2cccc(F)c2)[C@@H]1CCC` [Compound 84], for which the minimal inhibitory concentration (MIC) was more than 128 µg/mL.

In the case of `C=C1C(=O)OC(C2=CC=CCC2)C1C1CCCCC1` (centres unmarked) [Compound 185], the MIC was more than 64 µg/mL.

With `C=C1C(=O)O[C@H](c2ccccc2)[C@@H]1c1ccc(OC)cc1` [Compound 72], the MIC came out at 64 µg/mL (≈ 228 µM).

On to `C=C1C(=O)O[C@H](c2ccc([N+](=O)[O-])cc2)[C@@H]1C` [Compound 102], for which the MIC is more than 128 µg/mL.

On to `C=C1C(=O)O[C@H](c2cc(OC)c(OC)c(OC)c2)[C@@H]1c1ccc(C(F)(F)F)cc1` [Compound 92], for which the minimum inhibitory concentration (MIC) came to 32 µg/mL (≈ 78.4 µM).

`C=C1C(=O)O[C@H](c2cccnc2)[C@@H]1C` [Compound 119]: the MIC is more than 128 µg/mL.

Take `O=C1O[C@H](c2cccc3ccccc23)[C@H](c2ccccc2)C1CN1CCCCC1` (some centres unmarked) [Compound 162]: the MIC stood at 8 µg/mL (≈ 20.8 µM).

As to `C=C1C(=O)O[C@H](c2ccnc3ccccc23)[C@@H]1c1ccc2ccccc2c1` [Compound 111], the minimum inhibitory concentration (MIC) is 2 µg/mL (≈ 5.69 µM).

For `C/C=C1/C(=O)O[C@H](c2ccc(C)cc2)[C@H]1C` [Compound 104], the minimal inhibitory concentration (MIC) is more than 128 µg/mL.

Turning to `C=C1C(=O)O[C@H]2[C@H]1CC/C(C)=C/CC[C@@]1(C)O[C@@H]21` [Compound 125, Parthenolide, reference compound], the MIC amounted to 128 µg/mL (≈ 515 µM).

`COc1ccc([C@H]2OC(=O)C(CN(C)C)[C@H]2c2ccc(C#N)cc2)cc1` (some centres unmarked) [Compound 15]: the minimal inhibitory concentration (MIC) was more than 128 µg/mL.

In the case of `C=C1C(=O)O[C@H](c2ccc(OC)cc2)[C@@H]1c1ccc(C)cc1` [Compound 74], the minimum inhibitory concentration (MIC) came to 16 µg/mL (≈ 54.4 µM).
